Measurements taken from ChEMBL document CHEMBL1201862, “PubChem BioAssay data set” (2004).
Calls of active or inactive are those of the source.

Tests used:
[1] = target: Cytochrome P450 3A4 (Homo sapiens, UniProt P08684);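 further: CYP3A4 tested as one member of a cytochrome P450 panel screen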
[2] = Luminescence Cell-Based Dose Retest to Confirm Inhibitors of Cancer Stem Cells. [Related pubchem assays (depositor defined):AID2717, AID2721]; format: functional; conditions: Homo sapiens
[3] = inhibitors of SNCA 5'UTR-driven reporter translation, confirmation, H4 neuroglioma cells, luminescence (AID 1988); format: functional, cell-based
[4] = Luminescence Cell-Based Dose Response HTS to Identify Inhibitors of 5'UTR Stem-Loop Driven Prion Protein mRNA Translation in H4 Neuroglioblastoma Cells. [Related pubchem assays: 1827 (Project Summary), 1813 (Primary HTS)]; format: functional
[5] = inhibitors of firefly luciferase expression or activity, dose response, H4 neuroglioma cells, luminescence (AID 1990); format: functional, cell-based
[6] = target: T1, Corticotropin-releasing factor receptor 2/Corticotropin-releasing factor-binding protein (Homo sapiens, UniProt P24387+Q13324); test: Dose Response confirmation of uHTS hits for small molecule antagonists of the CRF-binding protein and CRF-R2 receptor complex.; format: functional; conditions: read-out: IC50_Mean
T1 sequence (Q13324 whole entry): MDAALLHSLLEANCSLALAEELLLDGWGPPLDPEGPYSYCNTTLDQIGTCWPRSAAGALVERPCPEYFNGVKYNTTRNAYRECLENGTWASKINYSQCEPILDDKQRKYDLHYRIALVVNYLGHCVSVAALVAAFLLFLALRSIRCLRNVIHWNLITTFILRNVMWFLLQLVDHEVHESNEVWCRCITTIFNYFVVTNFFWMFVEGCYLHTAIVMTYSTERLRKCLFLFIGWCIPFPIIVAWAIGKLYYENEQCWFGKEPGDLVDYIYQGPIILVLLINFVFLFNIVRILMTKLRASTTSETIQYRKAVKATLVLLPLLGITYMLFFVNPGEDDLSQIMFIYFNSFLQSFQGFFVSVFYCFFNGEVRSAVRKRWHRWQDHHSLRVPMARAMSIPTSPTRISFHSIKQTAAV
T1 sequence (P24387 whole entry): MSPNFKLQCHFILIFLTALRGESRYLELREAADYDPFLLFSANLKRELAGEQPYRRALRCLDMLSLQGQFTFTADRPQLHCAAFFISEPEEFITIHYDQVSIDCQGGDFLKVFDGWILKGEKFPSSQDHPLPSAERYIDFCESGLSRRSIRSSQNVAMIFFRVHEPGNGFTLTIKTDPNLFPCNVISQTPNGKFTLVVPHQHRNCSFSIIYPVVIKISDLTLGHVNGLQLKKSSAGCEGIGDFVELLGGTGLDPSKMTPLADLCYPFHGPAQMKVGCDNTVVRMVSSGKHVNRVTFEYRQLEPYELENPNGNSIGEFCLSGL

[7] = target: T1, Corticotropin-releasing factor receptor 2/Corticotropin-releasing factor-binding protein; test: activators of CRF receptor 2 with binding protein – uHTS hits, confirmation (AID 602473); format: functional; conditions: read-out: EC50_Mean
[8] = inhibitors of intracellular T. cruzi replication, confirmation, NIH3T3 host cells, beta-gal luminescence (AID 2044); format: functional, cell-based;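 further: intracellular parasites grown in NIH/3T3 mouse fibroblasts as host cells; luminescent beta-galactosidase reporter signal from transgenic T. cruzi replicating inside host cells; inhibitors lower the luminescence signal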
[9] = cytotoxicity toward NIH3T3 fibroblasts, dose response, counter-screen, cell-based, ATP luminescence, mouse fibroblasts (AID 2010); format: functional;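 further: cells exposed to compound for about 90 hours before reading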
[10] = target: Cytochrome P450 2C9 (Homo sapiens, UniProt P11712)
Cytochrome P450 2C9, sequence (P11712 whole entry): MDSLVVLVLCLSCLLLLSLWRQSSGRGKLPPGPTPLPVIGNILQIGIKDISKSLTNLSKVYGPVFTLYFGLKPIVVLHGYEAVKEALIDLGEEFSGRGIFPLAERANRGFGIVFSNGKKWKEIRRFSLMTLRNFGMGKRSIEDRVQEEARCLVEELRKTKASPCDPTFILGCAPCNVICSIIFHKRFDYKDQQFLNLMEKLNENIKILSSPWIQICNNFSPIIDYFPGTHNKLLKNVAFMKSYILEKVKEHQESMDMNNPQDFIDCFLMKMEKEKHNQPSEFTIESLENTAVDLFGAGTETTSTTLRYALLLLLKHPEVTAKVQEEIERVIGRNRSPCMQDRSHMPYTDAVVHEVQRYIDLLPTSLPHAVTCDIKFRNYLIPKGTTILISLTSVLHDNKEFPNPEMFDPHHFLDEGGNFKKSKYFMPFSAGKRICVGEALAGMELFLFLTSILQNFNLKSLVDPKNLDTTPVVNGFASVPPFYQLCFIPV

[11] = target: Cytochrome P450 2C19 (Homo sapiens, UniProt P33261); test: Cytochrome panel assay with activity outcomes. Panel member name: p450-cyp2c19 Compounds with AC50 equal or less than 10 uM are considered active; format: functional
Cytochrome P450 2C19, sequence (P33261 whole entry): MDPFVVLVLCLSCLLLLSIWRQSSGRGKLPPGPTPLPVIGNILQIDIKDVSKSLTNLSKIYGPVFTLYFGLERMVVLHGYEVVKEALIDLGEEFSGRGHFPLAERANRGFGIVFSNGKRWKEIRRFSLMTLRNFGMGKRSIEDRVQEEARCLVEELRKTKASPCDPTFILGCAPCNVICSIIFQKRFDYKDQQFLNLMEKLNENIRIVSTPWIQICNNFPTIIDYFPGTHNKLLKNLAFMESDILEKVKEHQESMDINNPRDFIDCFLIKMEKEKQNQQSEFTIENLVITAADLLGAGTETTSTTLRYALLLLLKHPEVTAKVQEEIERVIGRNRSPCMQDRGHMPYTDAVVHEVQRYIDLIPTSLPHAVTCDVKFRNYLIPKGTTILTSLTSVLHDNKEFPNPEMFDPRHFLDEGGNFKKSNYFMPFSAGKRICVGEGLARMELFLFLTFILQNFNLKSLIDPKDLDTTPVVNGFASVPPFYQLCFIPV

[12] = target: T2, Cytochrome P450 1A2 (Homo sapiens, UniProt P05177);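 further: PubChem cytochrome P450 panel assay, CYP1A2 panel member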
T2 sequence (P05177 whole entry): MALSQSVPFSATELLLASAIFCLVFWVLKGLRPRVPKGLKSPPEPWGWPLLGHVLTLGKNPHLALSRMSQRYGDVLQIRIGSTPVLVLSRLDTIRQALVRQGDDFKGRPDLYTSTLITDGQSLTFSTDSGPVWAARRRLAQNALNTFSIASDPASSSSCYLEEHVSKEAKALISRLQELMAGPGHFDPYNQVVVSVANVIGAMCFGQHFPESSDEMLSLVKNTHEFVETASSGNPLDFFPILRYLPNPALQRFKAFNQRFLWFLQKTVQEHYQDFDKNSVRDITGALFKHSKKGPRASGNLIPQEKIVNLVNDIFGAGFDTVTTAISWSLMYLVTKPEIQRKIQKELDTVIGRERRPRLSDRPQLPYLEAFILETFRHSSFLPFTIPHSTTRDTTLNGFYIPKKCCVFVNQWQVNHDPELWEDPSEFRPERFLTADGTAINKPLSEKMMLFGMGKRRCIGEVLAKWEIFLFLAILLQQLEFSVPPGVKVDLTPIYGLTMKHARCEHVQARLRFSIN

[13] = target: T3, Ubiquitin-conjugating enzyme E2 N (Homo sapiens, UniProt P61088); format: functional;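 further: Dose-response confirmation in a TR-FRET assay detecting UBC13-driven polyubiquitin chain formation, inhibition measured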
T3 sequence (P61088 whole entry): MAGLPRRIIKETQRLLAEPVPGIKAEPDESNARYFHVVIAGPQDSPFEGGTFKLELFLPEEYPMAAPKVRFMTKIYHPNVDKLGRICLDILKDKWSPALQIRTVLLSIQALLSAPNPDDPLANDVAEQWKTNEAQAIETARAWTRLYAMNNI

[14] = target: T4, Streptokinase A (Streptococcus pyogenes serotype M1, UniProt P10520); test: S. pyogenes streptokinase expression inhibitors, potency, dose response, plasminogen activation absorbance, OD405 (AID 1914); format: functional, Streptococcus pyogenes M1 GAS;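 further: secreted streptokinase activity via plasminogen activation per viability signal from cell pellet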
T4 sequence (P10520 whole entry): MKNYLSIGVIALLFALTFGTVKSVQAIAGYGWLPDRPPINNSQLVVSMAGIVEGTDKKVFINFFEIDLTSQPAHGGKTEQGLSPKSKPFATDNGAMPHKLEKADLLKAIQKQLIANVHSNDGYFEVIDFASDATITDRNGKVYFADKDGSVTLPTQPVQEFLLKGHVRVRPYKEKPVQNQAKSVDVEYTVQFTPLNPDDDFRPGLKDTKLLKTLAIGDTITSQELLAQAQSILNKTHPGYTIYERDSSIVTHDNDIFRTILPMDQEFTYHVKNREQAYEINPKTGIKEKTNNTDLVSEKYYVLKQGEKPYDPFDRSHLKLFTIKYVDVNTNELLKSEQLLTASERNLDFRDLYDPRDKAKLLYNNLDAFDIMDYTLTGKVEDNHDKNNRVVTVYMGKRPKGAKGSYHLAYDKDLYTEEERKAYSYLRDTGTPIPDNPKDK

[15] = test system: Streptococcus; test: Group A Streptococcus viability loss, dose response, counter-screen for streptokinase expression inhibitor project, luminescence, BacTiterGlo (AID 1915); format: functional, organism-based;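 further: potency for reduction of bacterial viability or growth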
[16] = test system: Streptococcus sp. 'group A'; test: growth inhibition of control SK(-) GAS strain, dose response, counter-screen for streptokinase expression inhibitor project, luminescence, kanamycin, BacTiterGlo, confirmation (AID 1900); format: functional, organism-based
[17] = target: Cytochrome P450 2D6 (Homo sapiens, UniProt P10635);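 further: CYP2D6 member of a cytochrome P450 panel assay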
Cytochrome P450 2D6, sequence (P10635 whole entry): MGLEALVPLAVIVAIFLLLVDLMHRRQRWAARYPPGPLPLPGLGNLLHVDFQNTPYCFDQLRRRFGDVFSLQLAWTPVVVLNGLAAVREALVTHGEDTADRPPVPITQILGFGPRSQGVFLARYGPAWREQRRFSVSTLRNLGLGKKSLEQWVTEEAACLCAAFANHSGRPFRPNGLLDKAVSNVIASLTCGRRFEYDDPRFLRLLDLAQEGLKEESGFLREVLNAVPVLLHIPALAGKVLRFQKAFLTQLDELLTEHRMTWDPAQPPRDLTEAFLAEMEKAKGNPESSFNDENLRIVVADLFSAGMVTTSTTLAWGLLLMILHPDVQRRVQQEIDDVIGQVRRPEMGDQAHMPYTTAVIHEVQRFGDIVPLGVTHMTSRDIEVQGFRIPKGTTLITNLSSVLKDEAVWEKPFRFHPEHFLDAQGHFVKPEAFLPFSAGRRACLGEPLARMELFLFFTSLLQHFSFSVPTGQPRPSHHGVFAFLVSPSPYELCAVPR

[18] = NIH-3T3 fibroblast cytotoxicity, dose response, cytotoxicity control, cell-based, fluorescence, Alamar Blue, secondary assay (AID 2327); format: functional;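 further: NIH-3T3 mouse fibroblasts cultured with fluconazole at 8 µg/mL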

Cytochrome P450 3A4, sequence (P08684 whole entry): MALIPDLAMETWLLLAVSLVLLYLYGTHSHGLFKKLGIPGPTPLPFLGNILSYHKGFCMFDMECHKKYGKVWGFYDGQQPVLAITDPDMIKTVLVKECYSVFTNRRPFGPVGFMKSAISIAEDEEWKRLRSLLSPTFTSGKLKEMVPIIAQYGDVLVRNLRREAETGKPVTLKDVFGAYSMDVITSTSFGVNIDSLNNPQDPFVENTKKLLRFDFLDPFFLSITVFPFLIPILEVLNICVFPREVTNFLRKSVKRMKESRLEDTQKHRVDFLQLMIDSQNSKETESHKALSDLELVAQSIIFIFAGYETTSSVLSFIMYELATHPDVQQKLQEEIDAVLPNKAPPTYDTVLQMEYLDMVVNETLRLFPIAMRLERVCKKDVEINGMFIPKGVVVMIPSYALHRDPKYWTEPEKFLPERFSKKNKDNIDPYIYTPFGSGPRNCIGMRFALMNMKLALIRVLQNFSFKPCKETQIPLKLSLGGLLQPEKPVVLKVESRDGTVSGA

## Cc1ccc(SCc2ccc(C(=O)NCc3ccncc3)cc2)cc1
[1]
  AC50: 7.08 µM (inconclusive)

## CN(C)c1ccc(/C=C(\Cl)c2nc3ccccc3s2)cc1
[2]
  AC50: 1.58 µM (active)

## CCNc1nc(Oc2ccc(C#N)cc2)cc(C(F)(F)F)n1
[3]
  EC50: 11.7 µM (active)
[4]
  EC50: 16.8 µM (active)
[5]
  EC50: 5.99 µM (active)

## Cn1cc(-c2nc3cnc(N4CCNCC4)nc3n(C3CC3)c2=O)c2ccccc21
[1]
  AC50: 7.94 µM (inconclusive)

## CCCn1c(=O)c(C(=O)NNS(=O)(=O)c2ccc(Cl)cc2)c(O)c2ccccc21
[2]
  AC50: 1.57 µM (active)

## Cc1c(NC2=C(Cl)C(=O)N(c3ccccc3Cl)C2=O)c(=O)n(-c2ccccc2)n1C
[6]
  IC50: > 47.1 µM (inactive)
[7]
  EC50: > 53 µM (inactive)

## CC(C)(C)n1nc(-c2ccc(F)cc2)c2c(N)ncnc21
[8]
  EC50: 316 nM (active)
[3]
  EC50: 20 µM (active)
[9]
  EC50: 7.86 µM (active)
[5]
  EC50: 8.68 µM (active)

## Cc1nc2cnc(Oc3ccccc3)nc2n(C2CC2)c1=O
[1]
  AC50: 25.1 µM (inconclusive)
[10]
  AC50: 12.6 µM (inconclusive)

## CC(=O)c1ccc(NC(=O)C2CC(c3ccc(F)cc3)=NO2)cc1 (stereo not drawn)
[11]; read-out: AC50
  AC50: 17.8 µM (inconclusive)
[12]
  AC50: 7.94 nM (inconclusive)
[10]
  AC50: 1.12 µM (inconclusive)

## CCCCc1ccc(/C=C(\C#N)C(N)=S)s1
[13]
  IC50: > 20 µM (inactive)

## c1cncc(-c2cc(-c3cc(-c4cccnc4)[nH]n3)n[nH]2)c1
[1]
  AC50: 5.01 µM (inconclusive)
[12]
  AC50: 501 nM (inconclusive)

## Cc1ccc(N2CCN(C(=O)CN3C(=O)c4ccccc4C3=O)CC2)cc1
[6]
  IC50: > 47.1 µM (inactive)
[7]
  EC50: > 53 µM (inactive)

## Fc1ccc(CSc2ncnc3sc4c(c23)CCCC4)cc1
[1]
  AC50: 35.5 µM (inconclusive)
[14]
  EC50: 13.3 µM (active)
[15]
  EC50: > 150 µM (not active)
[16]
  EC50: 22.8 µM (active)

## COc1ccc(Cc2nnc(Nc3ccc(C)cc3)o2)cc1OC
[3]
  EC50: 11.5 µM (active)
[4]
  EC50: > 120 µM (not active)
[5]
  EC50: > 120 µM (not active)

## CCCn1c(SCC#N)nc2c(c1=O)C1(CCCC1)Cc1ccccc1-2
[2]
  AC50: 1.92 µM (active)

## Cc1ccccc1-n1c(CSC(=N)N)nc2ccccc2c1=O
[6]
  IC50: > 47.1 µM (inactive)
[7]
  EC50: > 53 µM (inactive)

## O=[N+]([O-])c1ccc(Cl)c(/C=N/n2c(S)nnc2C2CCCCC2)c1
[2]
  AC50: 36.1 µM (active)

## CC(NCC(=O)Nc1ccccc1C(=O)NC1CC1)c1cccc(Cl)c1 (stereo not drawn)
[6]
  IC50: > 47.1 µM (inactive)
[7]
  EC50: > 53 µM (inactive)

## Cc1noc(NS(=O)(=O)c2ccc(NC(=O)CC34CC5CC(CC(Br)(C5)C3)C4)cc2)c1C
[11]
  AC50: inconclusive
[10]
  AC50: 22.4 µM (inconclusive)

## Cc1nc(N)sc1C(=O)NN
[13]
  IC50: > 20 µM (inactive)

## N#CCC(=O)N/N=C/c1cn(Cc2cccc3ccccc23)c2ccccc12
[3]
  EC50: 8.59 µM (active)
[4]
  EC50: > 120 µM (not active)
[5]
  EC50: 14.9 µM (active)

## COc1ccc(-c2oc(=O)c3cc(OC)c(OC)cc3c2C#CC2(O)CCCCC2)cc1
[13]
  IC50: > 20 µM (inactive)

## CCOC(=O)C1CCCN(C(=O)CCNC(=O)Cn2ccc3ccccc3c2=O)C1 (stereo not drawn)
[3]
  EC50: > 120 µM (not active)
[4]
  EC50: 104 µM (active)
[5]
  EC50: > 120 µM (not active)

## COc1ccc(/C=N/OCC(=O)N2CC3(C)CC2CC(C)(C)C3)cc1 (stereo not drawn)
[2]
  AC50: 11.5 µM (active)

## c1ccc2c(c1)CCCc1cc(NCCN3CCOCC3)nnc1-2
[1]
  AC50: 6.31 µM (inconclusive)

## NS(=O)(=O)c1ccc(/N=N\c2cccnc2O)cc1
[11]; read-out: AC50
  AC50: 3.98 µM (inconclusive)
[12]
  AC50: 501 nM (inconclusive)
[10]
  AC50: 3.16 µM (inconclusive)

## O=C(O)[C@H]1CCCC[C@@H]1c1c2ccc(=O)c(O)c-2oc2c(O)c(O)ccc12
[11]; read-out: AC50
  AC50: 2.51 µM (inconclusive)
[10]
  AC50: 6.31 µM (inconclusive)

## CC(C)Oc1ccc(N2CC(C(=O)OCC(=O)NCc3ccccc3)CC2=O)cc1 (stereo not drawn)
[17]
  AC50: 22.4 µM (inconclusive)
[10]
  AC50: 28.2 µM (inconclusive)

## O=c1cnc2cnc(Oc3ccccc3)nc2n1Cc1cccs1
[1]
  AC50: 15.8 µM (inconclusive)
[17]
  AC50: 39.8 µM (inconclusive)

## CCOc1ccc(N/N=C(/C#N)C(N)=O)cc1
[1]
  AC50: 20 µM (inconclusive)
[10]
  AC50: 15.8 µM (inconclusive)

## CN(C)c1ncc2nc(-c3cccs3)c(=O)n(C)c2n1
[1]
  AC50: 31.6 µM (inconclusive)

## COc1ccc(-c2cc(C(=O)N3CC4(C)CC3CC(C)(C)C4)no2)cc1OC (stereo not drawn)
[2]
  AC50: 1.75 µM (active)

## CCOC(=O)C1=C(C)NC(=O)N[C@@H]1c1coc2cc(C)cc(C)c2c1=O
[1]
  AC50: 3.98 µM (inconclusive)
[12]
  AC50: 2510 nM (inconclusive)

## c1cc(CNCCN2CCNCC2)ccn1
[1]
  AC50: 5.01 µM (inconclusive)
[17]
  AC50: 3.98 µM (inconclusive)

## CCCCCCc1nnc(N)s1
[3]
  EC50: > 120 µM (not active)
[4]
  EC50: > 120 µM (not active)
[5]
  EC50: > 120 µM (not active)

## Cc1cccc(C(=O)Nc2ccc(C(=O)Nc3ccc(O)cc3)cc2)c1
[2]
  AC50: 2.09 µM (active)

## O=C(Nc1ccc(Cl)c(S(=O)(=O)N2CCOCC2)c1)c1ccccc1-c1ccc(C(F)(F)F)cc1
[3]
  EC50: > 120 µM (not active)
[4]
  EC50: > 120 µM (not active)
[5]
  EC50: 14.5 µM (active)

## CCCCCCCCN[C@@H](C)[C@H](O)c1ccc(SC(C)C)cc1 [SULOCTIDIL]
[11]; read-out: AC50
  AC50: 10 µM (inconclusive)
[10]
  AC50: 0.00501 µM (inconclusive)

## CS(=O)(=O)N1CCC2(CC1)CN(Cc1ccncc1)C2
[1]
  AC50: 31.6 µM (inconclusive)
[17]
  AC50: 20 µM (inconclusive)

## Cc1cc(O)c(/C=N/Nc2ccc(F)cc2)c(=O)o1
[18]
  EC50: 9.97 µM (active)

## Cc1cc(C)cc(NC(=O)CC(=N)NO)c1
[1]
  AC50: 28.2 µM (inconclusive)
